Measurements reported in US11980625B2, “Ganaxolone for use in treating tuberous sclerosis complex” (Marinus Pharmaceuticals, Inc., priority 2019, dated 2024).
Entries after “also recorded” stand apart in the source; their conditions may differ. Where two headings read alike, the source gives them in different places.

Experiments:
[1] = tested on: children and adolescents with fragile X syndrome (FXS); settings: b131: in those with higher baseline anxiety; cited from earlier work
[2] = tested on: BTBR mouse model of autism; settings: in vivo; cited from earlier work
CYP3A4 = CYP3A4 (Homo sapiens, UniProt P08684); test: In vitro clearance
[3] = In vitro haemolysis and plasma compatibility; design: species or system human
Procedure: (§1) When given IV to rats and dogs, the main dose limiting toxicity finding was sedation. The no observed adverse effect level (NOAEL) after IV dosing in rats for 14 days was established at 42 mg/kg/day for males and 30 mg/kg/day for females. The NOAEL in dog after administration of ganaxolone by IV bolus followed by continuous IV infusion for 28 days was 7.20 mg/kg/day, which corresponded to a steady-state concentration of approximately 330 ng/mL and 333 ng/mL. There were no findings in a local tolerance study in rabbits.

[4] = Modeled PK curves, TID versus BID dosing; design: species or system human; settings: modeled PK curves based on Phase 1 studies
Procedure: Based on the modeled PK curves, TID dosing may yield plasma ganaxolone levels >100 ng/mL for approximately 78% of a 24-hr day compared to just 53% using BID dosing.

[5] = Ganaxolone plasma concentrations after oral administration in humans; type: in vivo, human; settings: for Cmax: human, plasma
Procedure: (§2) Given the complexity and difficulties in treating TSC and TSC-related epilepsy, the inventors believed that a high dose of drug (e.g., ganaxolone) would be required for effective treatment. For example, in a clinical trial in adults with focal seizures, ganaxolone was administered at a daily dose of 1800 mg (administered as 900 mg twice a day), yet the clinical endpoint was not achieved. […] Without wishing to be bound by any particular theory or mechanism, it is believed that more frequent administration of ganaxolone (e.g., three time a day) but at a lower daily dose than was used previously, improves drug exposure by maintaining a ganaxolone serum level (e.g., trough levels) above a threshold level for longer periods of time resulting in effective treatment. For example, administering oral ganaxolone three times daily (or more) with a total daily dose of no more than 1800 mg, or no more than 1700 mg, or no more than 1600 mg, or no more than 1500 mg, or no more than 63/mg/kg/day of ganaxolone can produce a plasma concentration of ganaxolone of at least about 100 ng/ml for approximately 70% or greater for a 24 hour-day, and provide effective seizure reduction. Also, less ganaxolone is typically required to achieve the increased trough concentration of ganaxolone using three time per day (or more frequent) administration, which is also beneficial for the subject under treatment. In fact, trough ganaxolone levels with twice a day dosing typically remained below 100 ng/ml over the 24 hour treatment period.
Therefore, to maintain as high a trough level as possible in all subjects, a dose of 1800 mg/day is generally targeted, but maybe adjusted higher or lower in certain individuals to provide for optimal therapeutic effect.

[6] = tested on: adults with focal seizures; test: Clinical trial in adults with focal seizures; type: in vivo, human; settings: daily dose of 1800 mg (900 mg twice a day)
Procedure: as §2, with “In fact, trough ganaxolone levels with twice a day dosing typically remained below 100 ng/ml over the 24 hour treatment period.” left out

rats = test: Intravenous ganaxolone in rats: EEG and status epilepticus models; type: in vivo
[7] = tested on: pediatric patients with refractory seizures and a history of IS; settings: doses up to 36 mg/kg for up to 3 months; cited from earlier work
rats and dogs = test: Toxicology studies (oral and IV programmes); type: in vivo
Procedure: as §1

[8] = Clinical interaction studies (grapefruit, enzyme-inducing AEDs); type: in vivo, human
rats or mice = test: Reproductive and developmental toxicity; type: in vivo
[9] = target: human ether-a-go-go related gene (hERG) receptor (Homo sapiens, UniProt Q12809); test: hERG interaction; settings: measured concentration of 70 nM (n=2)
rabbits = test: Local tolerance study in rabbits; type: in vivo
Procedure: as §1

female rats = test: Pulmonary effects in female rats; type: in vivo; settings: doses up to 40 mg/kg
Source text: There was a physiologically normal shortening of the PR and QT interval in response to the higher heart rate. There was no effect on QRS duration or QTc interval.

[10] = Auto-induction in animals; type: in vivo, mouse, rat, dogs
[11] = tested on: mouse model of posttraumatic stress disorder (PTSD); settings: in vivo; cited from earlier work
[12] = tested on: synaptic and extrasynaptic GABAA receptors; settings: site distinct from benzodiazepines and barbiturates; cited from earlier work
[13] = human plasma following oral administration; cited from earlier work
[14] = Excretion of radioactivity; type: in vivo; settings: all species
Source text: Most excreted radioactivity in all species is via faeces (>70%) with the remaining excreted in urine.

Sequence of CYP3A4 (P08684 whole entry): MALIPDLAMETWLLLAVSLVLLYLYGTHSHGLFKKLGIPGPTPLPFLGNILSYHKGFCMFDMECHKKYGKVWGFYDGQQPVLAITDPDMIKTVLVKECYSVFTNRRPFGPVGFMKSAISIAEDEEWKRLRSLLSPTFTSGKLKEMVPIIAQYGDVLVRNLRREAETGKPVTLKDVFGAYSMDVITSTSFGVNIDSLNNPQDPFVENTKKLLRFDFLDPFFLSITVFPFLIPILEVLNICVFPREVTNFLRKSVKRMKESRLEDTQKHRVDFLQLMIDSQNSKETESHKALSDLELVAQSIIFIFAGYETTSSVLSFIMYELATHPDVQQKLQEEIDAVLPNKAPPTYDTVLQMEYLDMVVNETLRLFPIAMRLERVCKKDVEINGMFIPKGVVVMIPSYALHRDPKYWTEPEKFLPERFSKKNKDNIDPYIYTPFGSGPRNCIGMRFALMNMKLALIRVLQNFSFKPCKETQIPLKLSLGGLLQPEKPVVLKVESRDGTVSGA
Sequence of human ether-a-go-go related gene (hERG) receptor (Q12809 whole entry): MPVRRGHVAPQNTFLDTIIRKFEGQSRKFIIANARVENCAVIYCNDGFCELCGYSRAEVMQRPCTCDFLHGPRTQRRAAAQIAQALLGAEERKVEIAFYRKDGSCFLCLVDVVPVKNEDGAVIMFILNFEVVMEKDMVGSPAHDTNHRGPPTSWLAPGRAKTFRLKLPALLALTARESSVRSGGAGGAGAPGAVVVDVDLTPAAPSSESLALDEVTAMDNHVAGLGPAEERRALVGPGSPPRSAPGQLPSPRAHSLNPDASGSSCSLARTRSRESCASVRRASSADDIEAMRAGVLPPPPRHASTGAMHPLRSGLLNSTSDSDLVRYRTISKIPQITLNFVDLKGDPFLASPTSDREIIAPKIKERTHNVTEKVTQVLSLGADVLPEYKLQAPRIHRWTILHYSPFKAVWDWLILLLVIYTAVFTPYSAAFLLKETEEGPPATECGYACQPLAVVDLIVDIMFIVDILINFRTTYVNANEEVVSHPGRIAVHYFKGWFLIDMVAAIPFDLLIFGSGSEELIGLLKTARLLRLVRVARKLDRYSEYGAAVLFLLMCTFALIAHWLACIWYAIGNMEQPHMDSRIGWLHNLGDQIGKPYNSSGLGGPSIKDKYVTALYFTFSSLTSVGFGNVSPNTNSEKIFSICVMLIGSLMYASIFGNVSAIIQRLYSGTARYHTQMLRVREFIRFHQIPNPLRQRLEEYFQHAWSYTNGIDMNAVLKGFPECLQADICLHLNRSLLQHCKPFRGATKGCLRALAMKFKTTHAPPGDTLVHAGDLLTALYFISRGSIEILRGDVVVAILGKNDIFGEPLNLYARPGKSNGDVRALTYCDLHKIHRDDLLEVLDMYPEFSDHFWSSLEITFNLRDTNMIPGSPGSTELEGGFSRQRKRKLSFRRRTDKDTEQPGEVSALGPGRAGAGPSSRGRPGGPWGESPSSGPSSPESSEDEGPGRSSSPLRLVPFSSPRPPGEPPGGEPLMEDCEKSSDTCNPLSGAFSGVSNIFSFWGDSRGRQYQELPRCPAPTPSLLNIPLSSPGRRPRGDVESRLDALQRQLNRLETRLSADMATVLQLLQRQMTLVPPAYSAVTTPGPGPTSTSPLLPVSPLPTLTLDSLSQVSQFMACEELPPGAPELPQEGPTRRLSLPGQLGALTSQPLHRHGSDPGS

SMILES: CC(=O)[C@H]1CC[C@H]2[C@@H]3CC[C@H]4C[C@](C)(O)CC[C@]4(C)[C@H]3CC[C@]12C [Ganaxolone, 3α-hydroxy-3β-methyl-5α-pregnan-20-one]
- anxiety, hyperactivity and attention [1]: reduce anxiety, hyperactivity, and attention; also recorded: reduced anxiety and hyperactivity and improved attention
- sociability [2]: improved sociability
- enzyme driving clearance (CYP3A4): driven mainly by CYP3A4
- compatibility with human plasma [3]: compatible with human plasma
- haemolysis [3]: did not cause haemolysis
- part of a 24-hr day with plasma ganaxolone levels >100 ng/mL ([4]; BID dosing): 53%
- part of a 24-hr day with plasma ganaxolone levels >100 ng/mL ([4]; TID dosing): approximately 78%
- trough concentration ([5]; 3 to 18 mg/kg TID, oral suspension formulation): about 23 ng/mL
- trough concentrations ([5]; human about 0.6 to about 7 years old, 12 mg/kg TID): at least 38.5±37.4 ng/mL
- Cmax ([5]; 3 to 18 mg/kg TID, oral suspension formulation, read-out: Cmax): ~123 ng/mL
- Cmax ([5]; twice-a-day oral administration of 1000 mg ganaxolone, read-out: mean Cmax): ~262 ng/mL
- dose linearity of pharmacokinetics ([5]; immediate release 0.3-micron particles (formulation of Example 2), BID): linear through approximately 1200 mg/day
- plasma concentrations at week 4 ([5]; oral 6 mg/kg BID to 12 mg/kg TID, O-cyclodextrin formulation with food): up to 22.1 ng/mL
- plasma concentrations ([5]; oral with food, 1 mg/kg TID): up to 5.78 ng/mL
- trough ganaxolone levels ([5]; twice a day dosing, over the 24 hour treatment period): below 100 ng/ml
- mean Cmin (trough) ([5]; twice-a-day oral administration of 1000 mg ganaxolone): about 56.9 ng/ml
- clinical endpoint [6]: not achieved
- mutagenicity (Mutagenicity): No potential for mutagenicity was detected
- EEG effect in otherwise normal rats (rats): induce burst suppression-like electroencephalogram (EEG) patterns
- sedative/anesthetic response (rats; caused a sedative response): did not cause a full anesthetic response
- patients who became spasm-free [7]: One
- patients with a decrease from baseline in the number of spasms of 50% [7]: Five
- patients with a decrease in the number of spasms of 25 to 50% [7]: 5 of the 15 patients
- patients with a decrease in the number of spasms of <25% [7]: 5 of the 15 patients
- main dose limiting toxicity finding (rats and dogs; IV to rats and dogs): sedation
- most common effect in toxicology studies (rats and dogs; in vivo): dose-related sedation
- target organ or systemic toxicity (rats and dogs; oral and IV programmes, single- or multiple-dose): little evidence of target organ or systemic toxicity
- effect of grapefruit on exposure ([8]; healthy volunteers, adults): increased the exposure
- ganaxolone levels with concomitant enzyme-inducing AEDs ([8]; patients): reduced
- development of treated neonatal rats (rats or mice; neonatal rats, expected signs of sedation): did not affect development
- fertility and early embryonic development (rats or mice; rats): no effects on fertility and early embryonic development
- teratogenicity (rats or mice; rats or mice): not teratogenic
- interaction with hERG receptor [9]: did not interact
- local tolerance (rabbits): no findings
- pulmonary effects (female rats): No pulmonary effects
- auto-induction ([10]; dogs): no auto-induction
- auto-induction ([10]; mouse and rat): Auto-induction has also been observed
- behaviour in PTSD mouse model [11]: decreased aggression and social isolation-induced anxiety-like behaviour
- potency and efficacy in activating GABAA receptors [12]: comparable to allopregnanolone
- half-life [13]: approximately 20 hours
- excreted radioactivity via faeces [14]: > 70%
